From patent US20120308623A1, “COMPOSITION COMPRISING NANOPARTICLES OF TI02” (priority 2009, published 2012)

Experiments:
[1] = Methylene blue degradation measured by UV-vis spectrophotometry; details: Example 1: H2O2 at 15 vol. %, TiO2 at various concentrations, no UV irradiation, measured every 3 minutes for one hour
Excerpt: Methylene blue (MB) is a heterocyclic aromatic chemical compound with molecular formula: C16H18N3SCl (AldrichSigmaAldrich, Oslo, Norway). It has many uses in a range of different fields, such as biology and chemistry. […] A degradadation of MB therefore can be used as a model for the in vivo degradation of organic material, such as bacteria, or dead, damaged, and/or infected tissue. At room temperature it appears as a solid, odourless, dark green powder that yields a blue solution when dissolved in water. When degradated in solution, methylene blue becomes colourless. When methylene blue is analysed by UV-vis spectrophotometry (Lambda 25, Perkin Elmer, USA), it absorbs light at […]. This machine was used to quantify the degradation of MB.
The aim was to measure if methylene blue could be degradated by H2O2 (PERDROGEN® 30% H2O2 (w/w), Sigma Aldrich AS, Oslo, Norway) at 15% only, without TiO2 or UV irradiation. Then, an increasing concentration of TiO2 (Aeroxide P25, Evonik AG, Essen, Germany) was added to the solution until a maximum concentration of 8 g/L. The measurements were taken every 3 minutes for one hour. The pH of the suspension containing MB was also registered. The suspension was stirred prior to each measurement to prevent the deposition of the TiO2 particles. […]

[2] = pH of the suspension containing MB; type: physicochemical; details: Example 1: H2O2 at 15 vol. %, without or with TiO2
Protocol: The aim was to measure if methylene blue could be degradated by H2O2 (PERDROGEN® 30% H2O2 (w/w), Sigma Aldrich AS, Oslo, Norway) at 15% only, without TiO2 or UV irradiation. Then, an increasing concentration of TiO2 (Aeroxide P25, Evonik AG, Essen, Germany) was added to the solution until a maximum concentration of 8 g/L. The measurements were taken every 3 minutes for one hour. The pH of the suspension containing MB was also registered. The suspension was stirred prior to each measurement to prevent the deposition of the TiO2 particles.
The aim was to measure if methylene blue could be degradated by TiO2 nanoparticles only (Aeroxide P25, Evonik AG, Essen, Germany), without H2O2 or UV irradiation. Then, an increasing concentration of H2O2 (PERDROGEN® 30% H2O2 (w/w), Sigma Aldrich AS, Oslo, Norway) was added to the suspension until a maximum concentration of 15 vol. %. The procedure of the experiment was the same as explained in example 1.

In the case of `OO` [H2O2 at 15 vol. %, H2O2], the Methylene blue degradation [1] is reported as “Almost no degradation” and the “pH of the suspension containing MB” value [2] is reported as 3.7.
